Test results: US11220502B2, “Sulfone compounds and derivatives for the treatment and prophylaxis of virus infection” (Hoffmann-La Roche Inc., priority 2018, dated 2022)
Where two headings read alike, the source gives them in different places.

How the values were obtained:
human TLR7 = target: T1, human TLR7 (Homo sapiens, UniProt Q9NYK1); assay: HEK293-Blue-hTLR-7 cells assay (SEAP reporter, NF-κB activation); assay type: cell-based; settings: for EC50: HEK293-Blue-hTLR-7 cells, 20 hrs incubation, SEAP reporter; for Ratio (EC50(prodrug)/EC50(active form)): calculated ratio of prodrug EC50 to EC50 of corresponding active form
T1 sequence (Q9NYK1 27-1049): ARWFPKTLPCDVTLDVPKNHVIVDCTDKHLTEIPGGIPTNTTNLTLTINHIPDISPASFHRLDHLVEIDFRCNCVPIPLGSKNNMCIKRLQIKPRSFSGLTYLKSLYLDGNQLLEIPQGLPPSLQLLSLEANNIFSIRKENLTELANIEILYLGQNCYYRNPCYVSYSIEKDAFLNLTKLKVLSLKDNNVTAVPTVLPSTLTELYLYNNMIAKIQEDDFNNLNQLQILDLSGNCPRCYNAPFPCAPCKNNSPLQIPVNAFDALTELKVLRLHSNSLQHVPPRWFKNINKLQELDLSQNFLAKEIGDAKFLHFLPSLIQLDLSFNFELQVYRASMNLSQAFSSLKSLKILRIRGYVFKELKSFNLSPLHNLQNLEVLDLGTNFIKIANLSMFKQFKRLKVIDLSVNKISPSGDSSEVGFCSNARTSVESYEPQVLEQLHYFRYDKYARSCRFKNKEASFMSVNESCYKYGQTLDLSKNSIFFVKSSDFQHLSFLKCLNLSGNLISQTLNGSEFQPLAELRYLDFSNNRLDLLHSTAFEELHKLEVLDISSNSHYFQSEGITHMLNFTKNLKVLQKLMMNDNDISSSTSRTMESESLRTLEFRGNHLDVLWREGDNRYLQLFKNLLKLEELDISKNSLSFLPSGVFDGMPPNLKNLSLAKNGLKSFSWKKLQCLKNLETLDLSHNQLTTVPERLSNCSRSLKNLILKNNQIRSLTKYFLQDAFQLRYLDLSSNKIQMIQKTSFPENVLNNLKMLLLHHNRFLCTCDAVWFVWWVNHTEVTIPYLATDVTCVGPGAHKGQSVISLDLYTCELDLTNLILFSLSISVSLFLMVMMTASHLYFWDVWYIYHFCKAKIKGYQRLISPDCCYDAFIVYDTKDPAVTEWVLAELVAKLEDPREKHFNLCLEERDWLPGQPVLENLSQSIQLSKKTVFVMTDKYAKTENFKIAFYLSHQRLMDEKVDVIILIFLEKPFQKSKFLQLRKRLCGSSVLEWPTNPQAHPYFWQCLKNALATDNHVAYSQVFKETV
Description: HEK293-Blue-hTLR-7 Cells Assay
A stable HEK293-Blue-hTLR-7 cell line was purchased from InvivoGen (Cat. #: hkb-ht1r7, San Diego, Calif., USA). These cells were designed for studying the stimulation of human TLR7 by monitoring the activation of NF-κB. A SEAP (secreted embryonic alkaline phosphatase) reporter gene was placed under the control of the IFN-β minimal promoter fused to five NF-κB and AP-1-binding sites. The SEAP was induced by activating NF-κB and AP-1 via stimulating HEK-Blue hTLR7 cells with TLR7 ligands. Therefore the reporter expression was regulated by the NF-κB promoter upon stimulation of human TLR7 for 20 hrs. The cell culture supernatant SEAP reporter activity was determined using QUANTI-Blue™ kit (Cat. #: rep-qb1, Invivogen, San Diego, Calif., USA) at a wavelength of 640 nm, a detection medium that turns purple or blue in the presence of alkaline phosphatase.
HEK293-Blue-hTLR7 cells were incubated at a density of 250,000˜450,000 cells/mL in a volume of 180 μL in a 96-well plate in Dulbecco's Modified Eagle's medium (DMEM) containing 4.5 g/L glucose, 50 U/mL penicillin, […], […], 2 mM L-glutamine, 10% (V/V) heat-inactivated fetal bovine serum for 24 hrs. Then the HEK293-Blue-hTLR-7 cells were incubated with addition of 20 μL test compound in a serial dilution in the presence of final DMSO at 1% and perform incubation under 37° C. in a CO2 incubator for 20 hrs. Then 20 μL of the supernatant from each well was incubated with 180 μL Quanti-blue substrate solution at 37° C. for 2 hrs and the absorbance was read at 620˜655 nm using a spectrophotometer. The signalling pathway that TLR7 activation leads to downstream NF-κB activation has been widely accepted, and therefore similar reporter assay was also widely used for evaluating TLR7 agonist (Tsuneyasu Kaisho and Takashi Tanaka, Trends in Immunology, Volume 29, Issue 7, July 2008, […]; Hiroaki Hemmi et al, Nature Immunology 3, 196-200 (2002)).
The Compounds and Examples of the present invention were tested in HEK293-hTLR-7 assay for their TLR7 agonism activity as described herein and results are listed in Table 1. […] The calculated ratio of EC50(prodrug)/EC50(active form) were within the range from 27.7 to about 8233.

[1] = Single dose PK study in Male Wister-Han Rats; assay type: in vivo
Method: Single dose PK study in Male Wister-Han Rats The single dose PK in Male Wister-Han Rats was performed to assess pharmacokinetic properties of tested compounds. Two groups of animals were dosed via Gavage (POE) of the respective compound. Blood samples (approximately 20 μL) were collected via Jugular vein or an alternate site at 15 min, 30 min, 1 h, 2 h, 4 h, 7 h and 24 h post-dose groups. Blood samples were placed into tubes containing EDTA-K2 anticoagulant and centrifuged at 5000 rpm for 6 min at 4° C. to separate plasma from the samples. After centrifugation, the resulting plasma was transferred to clean tubes for bioanalysis of both prodrug and active form on LC/MS/MS. In the groups that prodrugs were dosed, the concentration of prodrugs in the plasma samples was under the detection limit. The “tested compound” in Table 3 was used as the internal standard for testing the metabolite (active form) of “dose compound” in vivo. The pharmacokinetic parameters were calculated using non-compartmental module of WinNonlin® Professional 6.2. The peak concentration (Cmax) was recorded directly from experimental observations. The area under the plasma concentration-time curve ([…]) was calculated using the linear trapezoidal rule up to the last detectable concentration. Cmax and AUC0-last are two critical PK parameters related to the in vivo efficacy of the tested compound. […]

[2] = prodrug, read-out: HEK293-hTLR-7 EC50 (Prodrug)

| SMILES | EC50 (human TLR7; corresponding active form, read-out: HEK293-hTLR-7 EC50 (Active form)) [µM] | Cmax (nM) ([1]; 5 mg/kg oral dosing, male Wister-Han rats, plasma, tested compound Compound 8a (active form)) | EC50 (human TLR7; [2]) [µM] | Ratio (EC50(prodrug)/EC50(active form)) (human TLR7) | AUC0-last folds increase comparing with Compound 8a ([1]; oral administration, rats, prodrug versus active form) [folds] |
| --- | --- | --- | --- | --- | --- |
| CCCN(C)C(=O)n1c(=O)n(Cc2ccc(Cl)cc2)c2nc(S(=O)(=O)CC)nc(N)c21 [Example 8, 6-Amino-9-[(4-chlorophenyl)methyl]-2-ethylsulfonyl-N-methyl-8-oxo-N-propyl-purine-7-carboxamide] |  |  | 14.9 | 179.5 | 14.5 |
| CCS(=O)(=O)c1nc(N)c2c(n1)n(Cc1ccc(Cl)cc1)c(=O)n2C(=O)N(C)CCOC [Example 11, 6-Amino-9-[(4-chlorophenyl)methyl]-2-ethylsulfonyl-N-(2-methoxyethyl)-N-methyl-8-oxo-purine-7-carboxamide] |  |  | 10.1 | 121.7 |  |
| CCCN(C)C(=O)n1c(=O)n(Cc2ccc(C)cc2)c2nc(S(=O)(=O)CCC)nc(N)c21 [Example 12, 6-Amino-N-methyl-8-oxo-N-propyl-2-propylsulfonyl-9-(p-tolylmethyl)purine-7-carboxamide] |  |  | 3.3 | 50.8 |  |
| CCCS(=O)(=O)c1nc(N)c2c(n1)n(Cc1ccc(C)cc1)c(=O)n2C(=O)N(C)CC [Example 13, 6-Amino-N-ethyl-N-methyl-8-oxo-2-propylsulfonyl-9-(p-tolylmethyl)purine-7-carboxamide] |  |  | 9.6 | 147.7 |  |
| CCCN(C)C(=O)n1c(=O)n(Cc2ccc(C)cc2)c2nc(S(=O)(=O)CC)nc(N)c21 [Example 14, 6-Amino-2-ethylsulfonyl-N-methyl-8-oxo-N-propyl-9-(p-tolylmethyl)purine-7-carboxamide] |  |  | 68.5 | 1053 |  |
| CCN(C)C(=O)n1c(=O)n(Cc2ccc(C)cc2)c2nc(S(=O)(=O)CC)nc(N)c21 [Example 16, 6-Amino-N-ethyl-2-ethylsulfonyl-N-methyl-8-oxo-9-(p-tolylmethyl)purine-7-carboxamide] |  |  | 43.9 | 445.9 |  |
| CCS(=O)(=O)c1nc(N)c2c(n1)n(Cc1ccc(C)cc1)c(=O)n2C(=O)N1CCCC1 [Example 17, 6-Amino-2-ethylsulfonyl-9-(p-tolylmethyl)-7-(pyrrolidine-1-carbonyl)purin-8-one] |  |  | 67 | 1030.8 |  |
| CCCN(C)C(=O)n1c(=O)n(Cc2ccc(F)cc2)c2nc(S(=O)(=O)CC)nc(N)c21 [Example 18, 6-Amino-2-ethylsulfonyl-9-[(4-fluorophenyl)methyl]-N-methyl-8-oxo-N-propyl-purine-7-carboxamide] |  |  | 2.4 | 40 |  |
| CCN(C)C(=O)n1c(=O)n(Cc2ccc(F)cc2)c2nc(S(=O)(=O)CC)nc(N)c21 [Example 19, 6-Amino-N-ethyl-2-ethylsulfonyl-9-[(4-fluorophenyl)methyl]-N-methyl-8-oxo-purine-7-carboxamide] |  |  | 494 | 8233 |  |
| CCCN(C)C(=O)n1c(=O)n(Cc2ccc(Br)cc2)c2nc(S(=O)(=O)CC)nc(N)c21 [Example 22, 6-Amino-9-[(4-bromophenyl)methyl]-2-ethylsulfonyl-N-methyl-N-propyl-8-oxo-purine-7-carboxamide] |  |  | 13.1 | 570 |  |

The remaining lines, values ahead:

| EC50 (human TLR7; corresponding active form, read-out: HEK293-hTLR-7 EC50 (Active form)) [µM] | Cmax (nM) ([1]; 5 mg/kg oral dosing, male Wister-Han rats, plasma, tested compound Compound 8a (active form)) | EC50 (human TLR7; [2]) [µM] | Ratio (EC50(prodrug)/EC50(active form)) (human TLR7) | AUC0-last folds increase comparing with Compound 8a ([1]; oral administration, rats, prodrug versus active form) [folds] | SMILES |
| --- | --- | --- | --- | --- | --- |
| 0.083 | Not detected |  |  |  | CCS(=O)(=O)c1nc(N)c2[nH]c(=O)n(Cc3ccc(Cl)cc3)c2n1 [Compound 8a, 6-amino-9-[(4-chlorophenyl)methyl]-2-ethylsulfonyl-7H-purin-8-one] |
|  |  | 2.3 | 27.7 |  | CCS(=O)(=O)c1nc(N)c2c(n1)n(Cc1ccc(Cl)cc1)c(=O)n2C(=O)N(C)C [Example 10, 6-Amino-9-[(4-chlorophenyl)methyl]-2-ethylsulfonyl-N,N-dimethyl-8-oxo-purine-7-carboxamide] |
|  |  | 5.6 | 86.2 |  | CCN(CC)C(=O)n1c(=O)n(Cc2ccc(C)cc2)c2nc(S(=O)(=O)CC)nc(N)c21 [Example 15, 6-Amino-N,N-diethyl-2-ethylsulfonyl-8-oxo-9-(p-tolylmethyl)purine-7-carboxamide] |
|  |  | 32.1 | 4012.5 |  | CCCN(C)C(=O)n1c(=O)n(Cc2ccc(OC)cc2)c2nc(S(=O)(=O)CCC)nc(N)c21 [Example 20, 6-Amino-9-[(4-methoxyphenyl)methyl]-N-methyl-8-oxo-N-propyl-2-propylsulfonyl-purine-7-carboxamide] |
|  |  | 24.2 | 3025 |  | CCCS(=O)(=O)c1nc(N)c2c(n1)n(Cc1ccc(OC)cc1)c(=O)n2C(=O)N(C)CC [Example 21, 6-Amino-N-ethyl-9-[-(4-methoxyphenyl)methyl]-N-methyl-8-oxo-2-propylsulfonyl-purine-7-carboxamide] |
|  |  | > 100 | >4348 |  | CCN(C)C(=O)n1c(=O)n(Cc2ccc(Br)cc2)c2nc(S(=O)(=O)CC)nc(N)c21 [Example 23, 6-Amino-9-[(4-bromophenyl)methyl]-N-ethyl-2-ethylsulfonyl-N-methyl-8-oxo-purine-7-carboxamide] |
